{
  "source": "patent US10682388B2",
  "about": "“Targeting of PELP1 in cancer therapy” (THE BOARD OF REGENTS OF THE UNIVERSITY OF TEXAS SYSTEM, priority 2014, dated 2020)",
  "type_in_all_cases": "cell-based, Human",
  "key": {"[1]": {"test_system": "ZR75 cells", "test": "Estrogen-mediated growth, MTT assay", "details": "ZR75 cells stimulated with estradiol, FIG. 4C", "method": "FIGS. 4A-E. (FIG. 4A) ZR75vec, ZR75PELP1, MCF7vec and MCF7PELP1 cells were treated in triplicate with TAT, PIP1 or PIP1 deletions (Del1, Del2, Del3) at 10 uM every 3 days and proliferation was measured by MTT assay on day 7. (FIG. 4B) ZRPELP1 cells were transfected with ERE-luciferase and treated with TAT, PIP1, or PIP2 for 24 hours and with estradiol for 12 hours. Relative luciferase activity was measured in triplicate. (FIG. 4C) ZR75 cells were grown in 5% DCC media for 72 hours, treated with TAT or PIP1 every 3 days, and treated with estradiol 10^−7 M for 12 hours. Proliferation was measured in triplicate on day 7 by MTT assay at 595 nm. (FIG. 4D) MCF7-Letrozole resistant cells were grown in 5% DCC media for 72 hours, treated with TAT, PIP1 or PIP2 every 3 days, and letrozole or estradiol 10^−7 M for 12 hours. Proliferation was measured in triplicate on day 7 by MTT assay at 595 nm. […] Proliferation was measured in triplicate on day 7 by MTT assay at 595 nm.\nCell proliferation rates were measured by using MTT Cell Viability Assay in 96-well plates. […] After an overnight incubation, cells were treated with varying concentrations of the peptides for 3-7 days and growth inhibition was determined by using traditional MTT assay (Sigma) following manufacturer's instructions."}, "[2]": {"test_system": "MCF7PELP1 Cd44high/CD22low cells", "test": "Mammosphere formation and self-renewal assay on FACS-sorted cells", "from_the_text": "FIGS. 6A-C. (FIG. 6A) ZR75, ZR75PELP1 and ZR75PELP1KD cells were FACS sorted for CD44-APC and CD24-PE, and quantification of percentage of CD44high/CD24low cells is shown. (FIG. 6B) MCF7PELP1 cells were FACS sorted for CD44high/CD24low cells and plated in triplicate in serum free mammosphere media with TAT or PIP1 in various concentrations. Mammospheres were counted and imaged on day 7. Representative images are shown on right. (FIG. 6C) Mammospheres from previous assay (C) were dissociated and replated in serum free mammosphere media. Mammospheres were counted and imaged on day 7. Representative images are shown on right. ZR75PELP1 and MCF7PELP1 cells were FACS sorted for CD44-APC^high (Milteny Biotec) and CD24-PE^low (Milteny Biotec) cell surface markers. A single cell suspension of model cells ZR75-PELP1 were seeded in mammosphere media in a low adherent 96-well plate with TAT or PIP (10, 20 or 50 μM). Media containing peptide was added on day 4 and mammospheres were counted and imaged on day 8 (Shaw et al., 2012)."}, "[3]": {"test_system": "ERE-luciferase in ZR75 cells", "test": "ERE-luciferase reporter gene assay in ZR75 cells transfected with PELP1 and/or G9a", "details": "FIG. 2D", "method": "FIGS. 2A-D. (FIG. 2A) Immunoprecipitation was performed on nuclear lysates obtained from ZRPELP1 cells grown in 5% DCC for 72 hours and treated with estradiol 10^−7 M for 12 hours. PELP1 was immunoprecipitated and western blotting was performed for PELP1 and G9a expression with IgG as the control. (FIG. 2B) Various fragments of PELP1 bound to glutathione beads were incubated with recombinant G9a for 2 hours. Beads were washed, run on an SDS-PAGE gel and immunoblotted for G9a expression. GST tag alone is shown as control. (FIG. 2C) Recombinant G9a-GST was bound to glutathione beads and incubated with purified PELP1 and peptides for 2 hours. Beads were washed and run on SDS-PAGE gel. (FIG. 2D) ZR75 cells were transfected with ERE-luciferase, PELP1 and/or G9a plasmids and treated with peptide for 24 hours and estradiol 10^−7 M for 12 hours. Relative luciferase activity is shown.\nModel cells were seeded in 6-well plates. After overnight incubation, the cells were transfected with ERE-Luc plasmids using fugene for 6 h. Then, 24 hours after transfection, cells were incubated in 5% DCC media for estrogen starvation and then treated with TAT or PIP1/PIP2 for an additional 24 hours and estradiol (10^−8) for 12 hours. […] Luciferase activity was measured by using the luciferase assay system (Promega, Madison, Wis.)."}, "[4]": {"test_system": "ERE-luciferase in ZRPELP1 cells", "test": "ERE-luciferase reporter gene assay in PELP1 overexpressing cells", "details": "peptide 24 hours, estradiol 12 hours, compared to control TAT, FIGS. 4B, 10", "method": "FIGS. 4A-E. (FIG. 4A) ZR75vec, ZR75PELP1, MCF7vec and MCF7PELP1 cells were treated in triplicate with TAT, PIP1 or PIP1 deletions (Del1, Del2, Del3) at 10 uM every 3 days and proliferation was measured by MTT assay on day 7. (FIG. 4B) ZRPELP1 cells were transfected with ERE-luciferase and treated with TAT, PIP1, or PIP2 for 24 hours and with estradiol for 12 hours. Relative luciferase activity was measured in triplicate. (FIG. 4C) ZR75 cells were grown in 5% DCC media for 72 hours, treated with TAT or PIP1 every 3 days, and treated with estradiol 10^−7 M for 12 hours. Proliferation was measured in triplicate on day 7 by MTT assay at 595 nm. (FIG. 4D) MCF7-Letrozole resistant cells were grown in 5% DCC media for 72 hours, treated with TAT, PIP1 or PIP2 every 3 days, and letrozole or estradiol 10^−7 M for 12 hours. Proliferation was measured in triplicate on day 7 by MTT assay at 595 nm. (FIG. 4E) MCF7-Tamoxiefn resistant cells were grown in 5% DCC media for 72 hours, treated with TAT, PIP1 or PIP2 every 3 days, and tamoxifen or estradiol 10^−7 M for 12 hours. Proliferation was measured in triplicate on day 7 by MTT assay at 595 nm.\nFIG. 10. ERE-luciferase assay. […]\nModel cells were seeded in 6-well plates. […] Luciferase activity was measured by using the luciferase assay system (Promega, Madison, Wis.)."}},
  "note": "“Also recorded” adds a separate entry of the source.",
  "data": [
    {"sequence": "GRKKRRQRRRGGMVEFRWSCPGRRKAKA [PIP1]", "values": [
      {"measurement": "estrogen-mediated growth", "setting": "[1]", "result": "inhibition of the estrogen-mediated growth"},
      {"measurement": "number of mammospheres", "setting": "[2]; 10, 20 and 50 μM, FIG. 6B", "result": "significant decrease in the number of mammospheres"},
      {"measurement": "size of the mammospheres", "setting": "[2]; 10, 20 and 50 μM, FIG. 6B", "result": "substantially decreased"},
      {"measurement": "self-renewal capacity of replated mammospheres", "setting": "[2]; dissociated and replated, FIG. 6C", "result": "decreased self-renewal capacity; also recorded: inhibits the self-renewal of the cancer stem cells"},
      {"measurement": "estrogen response synergistically activated by PELP1 and G9a (ERE-luciferase)", "setting": "[3]", "result": "inhibited"},
      {"measurement": "ERE activation (ERE-luciferase)", "setting": "[4]", "result": "significantly decreased ERE activation"}
    ]}
  ]
}
